Reference: article PMC12191924, “A new naphthalene-based fluorogenic substrate for cytochrome P450 4A11” (Biochemical Journal, 2025)
“Also recorded” adds a separate entry of the source.

System: 16 human microsomal P450 enzymes
Assay: Probing MONACRA metabolism by 16 recombinant human P450 enzymes
Assay type: biochemical
Conditions: CYP1A2, 2A6, 2B6, 2C8, 2C9, 2C19, 2D6, 2E1, 2J2, 3A4, 3A5, 4A11, 4F2, 4F3A, 4F3B, 4F12
Protocol: Based on these observations, we developed a high-throughput automated assay applicable for studying SSPs of MONACRA metabolism by microsomal P450 enzymes. In this procedure, the incubation mixtures containing an NADPH-generating system and various substrate concentrations are placed in a multiwell plate and preincubated at 30°C in a thermostated shaker. The reaction is started by adding microsomal suspension to the final concentration of 0.3–1 mg/ml of microsomal protein or 0.02–0.1 µM of recombinant P450 enzymes in Supersomes. Following the incubation for 20 min at 30°C, the reaction is quenched by adding trichloroacetic acid (final concentration […]). After supplementing the wells with Na-glycine buffer (pH 10.4, final concentration 2.1 M), the plates are subjected to scanning the fluorescence spectra with excitation at 375 nm. This assay, which is described in detail in Materials and Methods, allows reliable detection of the concentrations of HONACRA as low as 0.1 µM.
We used the high-throughput activity assay described above to probe MONACRA metabolism by 16 human microsomal P450 enzymes, namely CYP1A2, CYP2A6, CYP2B6, CYP2C8, CYP2C9, CYP2C19, CYP2D6, CYP2E1, CYP2J2, CYP3A4, CYP3A5, CYP4A11, CYP4F2, CYP4F3A, CYP4F3B, and CYP4F12. […]

## COc1ccc2cc(C=CC(=O)O)ccc2c1 [MONACRA, 3-(6-methoxynaphthalen-2-yl)acrylic acid]
  activity in MONACRA demethylation among 16 recombinant human P450 enzymes: noticeable demethylation activity only with CYP4A11 and CYP1A2; also recorded: detectable activity in MONACRA demethylation was observed only with CYP4A11, CYP1A2, and CYP2C8
